Drawing on the NIST ThermoML archive (doi:10.1016/j.fluid.2011.10.017), this text covers mass density and refractive index for five compounds.

For orientation: mass density means mass per unit of volume. For orientation: refractive index means the speed of light in vacuum divided by its phase velocity in the sample.

± gives the expanded uncertainty stated by the source.

Assay in the first series: not given
The following applies: 298.15 K; 101.33 kPa; Liquid; Vibrating tube method.
In the case of `Cc1ccccc1` [toluene], the mass density came to 862.18 ± 0.13 kg/m3.
The same measure, in the same setting: for `CCCCCC[n+]1ccc(C)cc1C.O=S(=O)([N-]S(=O)(=O)C(F)(F)F)C(F)(F)F` the value was 1339.39 ± 1.6 kg/m3; for `c1ccncc1` [pyridine], 978.24 ± 0.1 kg/m3; for `CCCCCC` [hexane], 655.09 ± 0.26 kg/m3.
Regarding `c1ccsc1` [thiophene], the mass density was 1058.61 ± 0.12 kg/m3.

The next series can be described thus: refractive index (Na D-line) (dimensionless). The following applies: 298.15 K; 101.33 kPa; Liquid; Standard Abbe refractometry.
With `Cc1ccccc1` [toluene], the refractive index was determined as 1.49367 ± 0.00035.
Same read-out and setting: the same measure for `CCCCCC[n+]1ccc(C)cc1C.O=S(=O)([N-]S(=O)(=O)C(F)(F)F)C(F)(F)F`: 1.45336 ± 0.00052; for `c1ccncc1` [pyridine]: 1.50636 ± 0.00035; for `CCCCCC` [hexane]: 1.37236 ± 0.00039.
Still for that read-out and setting: the same measure for `c1ccsc1` [thiophene]: 1.52523 ± 0.00035.
